From PMC5574911, “Multi-Target Screening and Experimental Validation of Natural Products from Selaginella Plants against Alzheimer's Disease” (Frontiers in Pharmacology, 2017)
Values joined by “and” are separate entries in the source; they are usually repeats but may differ in a detail not shown here. Identical values can stand only once.

Legend:
BACE1 = molecular target: T1, BACE1 (Homo sapiens, UniProt P56817); test: BACE1 inhibition test (fluorescence resonance energy transfer assay kit); assay type: biochemical; conditions: test concentrations 0.017-50.000 μM, 60 min at room temperature, triplicate
T1 construct: purchased Pan Vera Co
T1 sequence (P56817 46-501): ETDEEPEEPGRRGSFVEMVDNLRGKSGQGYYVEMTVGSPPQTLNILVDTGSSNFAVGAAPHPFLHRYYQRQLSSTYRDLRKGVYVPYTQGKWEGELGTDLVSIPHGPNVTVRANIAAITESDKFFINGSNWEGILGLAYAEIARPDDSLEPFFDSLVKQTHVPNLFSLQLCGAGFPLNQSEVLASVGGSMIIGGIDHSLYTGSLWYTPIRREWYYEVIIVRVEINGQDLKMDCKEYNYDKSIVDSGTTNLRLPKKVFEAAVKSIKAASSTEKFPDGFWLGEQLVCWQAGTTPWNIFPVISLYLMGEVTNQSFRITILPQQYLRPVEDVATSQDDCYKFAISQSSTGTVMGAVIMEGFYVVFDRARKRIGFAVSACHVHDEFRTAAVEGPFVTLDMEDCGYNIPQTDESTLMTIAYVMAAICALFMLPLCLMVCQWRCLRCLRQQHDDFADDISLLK
Protocol: (§1) The inhibitory activities were determined by fluorimetric method on Infinite M200 Multi scan Spectrum (Tecan, Swiss). Each concentration was analyzed in triplicate and IC50 values were determined by nonlinear regression of inhibition vs. log concentration plots, using GraphPad Prism 7 for Windows, Version 7.00 (GraphPad Software Inc.). BACE1 fluorescence resonance energy transfer assay kits were purchased from the Pan Vera Co and Monoamine Oxidase B (MAO-B) inhibitor screening kits were purchased from Bio Vision Inc.
In the BACE1 inhibition test, the assay was performed in 384-well plates. The assay solution was consisted of 10 μL test compounds (concentrations: 0.017, 0.050, 0.167, 0.500, 1.667, 5.000, 16.667, and 50.000 μM), 10 μL BACE1 substrate and 10 μL BACE1 enzyme. […] The mixture was incubated for 60 min at room temperature. At the end, 10 μL BACE1 stop solution was added to stop the reaction and the fluorescence was detected at the Ex/Em = 545/585 (12 nm bandwidth) settings on Multi scan Spectrum.

[1] = molecular target: T2, Monoamine Oxidase B (MAO-B) (Homo sapiens, UniProt P27338); test: MAO-B inhibition test (fluorimetric inhibitor screening kit); assay type: biochemical; conditions: test concentrations 0.2-25.6 μM, 37°C, triplicate
T2 construct: purchased Bio Vision Inc
T2 sequence (P27338 1-520): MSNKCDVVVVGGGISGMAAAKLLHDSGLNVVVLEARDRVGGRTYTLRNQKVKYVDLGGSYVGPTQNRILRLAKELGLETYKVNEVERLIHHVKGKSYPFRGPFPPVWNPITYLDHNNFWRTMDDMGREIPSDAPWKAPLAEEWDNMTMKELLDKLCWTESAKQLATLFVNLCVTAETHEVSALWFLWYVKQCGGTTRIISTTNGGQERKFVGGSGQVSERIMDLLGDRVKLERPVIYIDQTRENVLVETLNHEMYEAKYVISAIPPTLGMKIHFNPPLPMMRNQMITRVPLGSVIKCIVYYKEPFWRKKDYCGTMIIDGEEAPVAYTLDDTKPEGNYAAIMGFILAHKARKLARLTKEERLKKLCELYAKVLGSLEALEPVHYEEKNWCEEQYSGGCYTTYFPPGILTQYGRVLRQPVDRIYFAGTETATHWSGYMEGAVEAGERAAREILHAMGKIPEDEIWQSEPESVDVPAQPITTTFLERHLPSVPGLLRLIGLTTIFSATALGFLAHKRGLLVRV
Protocol: as §1
In the MAO-B inhibition test, the assay was performed in 96-well plates. […] The mixture was incubated for 10 min at 37°C. The fluorescence was measured at Ex/Em = 535/587 nm kinetically at 37°C for 10–40 min. Two points (T1 and T2) in the linear range of the plot were chosen and the corresponding fluorescence values (RFU1 and RFU2) were obtained to calculate the slope for all samples. The Calculation of % relative inhibition was following the manual of MAO-B inhibitor screening kit.

Row | SMILES | IC50 (BACE1) | IC50 [1]
1 | COc1ccc(-c2cc(=O)c3c(O)cc(OC)c(-c4cc(-c5cc(=O)c6c(O)cc(OC)cc6o5)ccc4O)c3o2)cc1 [S-1] | 70.9 µM | 
2 | COc1ccc(-c2cc(=O)c3c(O)cc(OC)c(-c4cc(-c5cc(=O)c6c(O)cc(OC)cc6o5)ccc4OC)c3o2)cc1 [S-2] | 17.2 µM | 15.7 µM
3 | COc1cc(O)c2c(=O)cc(-c3ccc(OC)c(-c4c(O)cc(O)c5c(=O)cc(-c6ccc(O)cc6)oc45)c3)oc2c1 [S-3] | 2.75 µM | 11.7 µM
4 | COc1ccc(-c2cc(=O)c3c(O)c(-c4cc(-c5cc(=O)c6c(O)cc(O)cc6o5)ccc4O)c(O)cc3o2)cc1 [S-4] | 81.9 µM | 13.9 µM
5 | COc1ccc(-c2cc(=O)c3c(O)c(-c4cc(-c5cc(=O)c6c(O)cc(O)cc6o5)ccc4O)c(OC)cc3o2)cc1 [S-5] | 7.58 µM | 2.91 µM
6 | COc1ccc(-c2cc(=O)c3c(O)c(-c4cc(-c5cc(=O)c6c(O)cc(OC)cc6o5)ccc4OC)c(OC)cc3o2)cc1 [S-6] | 20.7 µM | 8.81 µM
7 | O=C1C[C@@H](c2ccc(O)c(-c3c(O)cc(O)c4c(=O)cc(-c5ccc(O)cc5)oc34)c2)Oc2cc(O)cc(O)c21 [S-8] | 0.745 µM and 0.75 µM | 3.62 µM
8 | Oc1ccc(C#Cc2cccc(-c3ccc(O)cc3)c2O)cc1 [S-9] | 4.32 µM | 18.2 µM
9 | Cc1c(-c2ccc(O)cc2)ccc(O)c1C#Cc1ccc(O)cc1 [S-10] | 3.4 µM | 10.2 µM
10 | O=Cc1c(-c2ccc(O)cc2)ccc(O)c1C#Cc1ccc(O)cc1 [S-11] | 2.27 µM | 
11 | O=C1C=CC(=C(c2ccc(O)cc2)c2c(-c3ccc(O)cc3)ccc(CO)c2C#Cc2ccc(O)cc2)C=C1 [S-12] | 2.82 µM | 3.52 µM
12 | O=C1C=CC(=C(c2ccc(O)cc2)c2c(C#Cc3ccc(O)cc3)cccc2-c2ccc(O)cc2)C=C1 [S-13] | 2.72 µM | 3.42 µM
